The nature of data set [1]: Estimated amounts released into the atmosphere from the thermal diffuser. To be noted: for Daily amount released into the atmosphere: at 100° C. It counts as physicochemical. As to the method: Based on the preceding measurements, we can estimate that the amounts released over the 35-day period by molecules going into each composition are the following (in grams):
By considering that at 100° C., all of product 122:1 decomposes as was shown in Example 3, we can estimate the daily amounts of the various products released into the atmosphere according to the various formulae.

In a further data set the test system is dogs. To be noted: dog, in vivo; cited from earlier work.
Data set [2] can be described thus: In vitro study of 2M2B release: climatic chamber, gas chromatography. To be noted: solution of Example 2b. Type of data set: physicochemical. As to the method: Conditions A: 1) Solketal/KOH/RI/DMSO/50° C. 2) APTS/MeOH/H2O. Conditions B: 1) Solketal/KOH/RBr/Toluene/DS/2) APTS/MeOH/H2O. Conditions C: 1) CH2Cl2/Et3N/MsCl 2) Solketal/KOH/ROMs/Toluene/DS/Δ3) APTS/MeOH/H2O. GC Method Used: Equipment: GC, Hewlett Packard 5890 Series II Detector FID Column: HP5 30 m, 0.53 mm, 0.88 μm Pressure: 11 psi Injection volume: 1 μL Sample preparation: 4 mg/mL in AcOEt Injector temperature: 270° C. Detector temperature: 280° C. Oven:
The solution prepared in Example 2b is used in a climatic chamber at 100° C. and 30° C. (conditions corresponding either to the temperature of a thermal diffuser or to room temperature). Samples are taken at regular intervals and the disappearance of compound 122:1 and the appearance of C22:1 AKG is measured by gas chromatography. The results are presented in the following table (the percentages are expressed only taking into consideration integration relative to compound 118 and of C18:0 AKG): […]

As for `CC=C(C)C=O` [2-Methyl-2-butenal, 2-methyl-2-butenal], the “Daily amount released into the atmosphere” value in data set [1] (2% Formula (2e)) is 0.036 mg; in data set [1] (5% Formula (2d)), 36 mg; in data set [1] (10% Formula (2c)), 0.32 mg. Besides, the effect on dogs result with dogs was “has an effect on the heartbeat and the behavior of dogs”.
In the case of `C/C=C(\C)C1OCC(COCCCCCCCCCCCC/C=C\CCCCCCCC)O1` (centres unmarked) [122:1], the entries for the “amount released over the 35-day period” value in data set [1] (from Formula 2c), in data set [1] (from Formula 2e) and in data set [1] (from Formula 2d) were 0.05 grams, 0.0063 grams and 0.0063 grams, respectively.
Regarding `CCCCCCCCCCCCCCCCCCOCC(O)CO` (centres unmarked) [C18:0 AKG], the “% (GC integration relative to compound 118 and C18:0 AKG)” value in data set [2] (T = 30° C., 1 d) worked out at 0%; in data set [2] (T = 30° C., 2 d), 0%; in data set [2] (T = 30° C., 7 d), 0%; in data set [2] (T = 30° C., 14 d), 0.5%; in data set [2] (T = 30° C., 21 d) it was 1%; in data set [2] (T = 30° C., 28 d), 1%. The “% (GC integration relative to compound 118 and C18:0 AKG)” value in data set [2] (T = 30° C., time 0) is 0%; in data set [2] (T = 100° C., 3 h) it was 48%; in data set [2] (T = 100° C., 6 h), 75%; in data set [2] (T = 100° C., 1 d), 98%; in data set [2] (T = 100° C., 2 d), 100%; in data set [2] (T = 100° C., 7 d), 100%. Moreover, the “% (GC integration relative to compound 118 and C18:0 AKG)” value in data set [2] (T = 100° C., 14 d) was found to be 100%; in data set [2] (T = 100° C., 21 d), 100%; in data set [2] (T = 100° C., 28 d), 100%; in data set [2] (climatic chamber, T = 100° C., time 0), 0%.
`C/C=C(\C)C1OCC(COCCCCCCCCCCCC/C=C\CCCCCCCC)O1` (centres unmarked) [C22:1 AKG]: the entries for the “Daily amount released into the atmosphere” value in data set [1] (2% Formula (2e)), in data set [1] (5% Formula (2d)) and in data set [1] (10% Formula (2c)) were 0.14 mg, 0.14 mg and 1.2 mg, respectively.
`CCCCC/C=C\C/C=C\CCCCCCCC(=O)O` [Linoleic acid]: the “Daily amount released into the atmosphere” value in data set [1] (2% Formula (2e)) is 5.8 mg; in data set [1] (5% Formula (2d)), 5.1 mg; in data set [1] (10% Formula (2c)), 5.5 mg. Besides, the “amount released over the 35-day period” value in data set [1] (from Formula 2c) is 0.195 grams; in data set [1] (from Formula 2e), 0.2 grams; in data set [1] (from Formula 2d) it was 0.188 grams.

These data come from patent US10227321B2, “Soothing pro-pheromonal composition for mammals” (Melchior Material And Life Science France, priority 2014, dated 2019).
